Experimental data published in patent US20220187282A1, “CARDIOMYOCYTE PROLIFERATION” (The Council of the Queensland Institute of Medical Research, priority 2019, published 2022).
Like-named read-outs stand apart in the source and are kept apart here.

What was measured:
Type in all cases: biochemical
kinases [1] = target: kinases (Homo sapiens, UniProt O00329); conditions: PIK3CD/PIK3R1 FRET-Adapta SP; Test Conc(μM):ATP Conc(μM) 1:75
kinases [2] = target: kinases (Homo sapiens, UniProt O14965); conditions: AURKA (Aurora A) Z-Lyte SP; Test Conc(μM):ATP Conc(μM) 1:10
kinases [3] = target: kinases (Homo sapiens, UniProt O43318); conditions: MAP3K7/MAP3K7IP1 Lantha SP; Test Conc(μM) 1
Chain of kinases (Homo sapiens, UniProt O43318) (O43318 whole entry): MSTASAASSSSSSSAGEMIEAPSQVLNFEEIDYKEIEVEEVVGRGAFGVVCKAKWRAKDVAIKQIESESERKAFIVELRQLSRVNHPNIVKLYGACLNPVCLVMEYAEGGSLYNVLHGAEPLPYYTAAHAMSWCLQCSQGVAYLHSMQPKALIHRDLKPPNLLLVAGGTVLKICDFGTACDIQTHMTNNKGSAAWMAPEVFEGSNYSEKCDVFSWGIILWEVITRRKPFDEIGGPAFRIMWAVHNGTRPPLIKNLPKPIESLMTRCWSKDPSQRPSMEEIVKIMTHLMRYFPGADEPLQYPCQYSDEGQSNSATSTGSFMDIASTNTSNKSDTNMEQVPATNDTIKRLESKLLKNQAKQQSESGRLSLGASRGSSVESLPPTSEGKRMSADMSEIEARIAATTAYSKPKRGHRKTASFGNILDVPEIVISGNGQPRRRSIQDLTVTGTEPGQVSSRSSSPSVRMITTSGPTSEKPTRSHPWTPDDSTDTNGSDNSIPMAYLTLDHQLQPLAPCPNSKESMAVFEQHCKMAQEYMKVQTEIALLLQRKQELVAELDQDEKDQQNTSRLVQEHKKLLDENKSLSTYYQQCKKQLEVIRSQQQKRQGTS

kinases [4] = target: kinases (Homo sapiens, UniProt P04626); conditions: ERBB2 (HER2) *Mn* Z-Lyte SP; Test Conc(μM):ATP Conc(μM) 1:10
kinases [5] = target: kinases (Homo sapiens, UniProt P05129); conditions: PRKCG (PKC gamma) Z-Lyte SP; Test Conc(μM):ATP Conc(μM) 1:25
kinases [6] = target: kinases (Homo sapiens, UniProt P06213); conditions: INSR *Mn* FRET-Z-Lyte SP; Test Conc(μM):ATP Conc(μM) 1:25
kinases [7] = target: kinases (Homo sapiens, UniProt P11802); conditions: Test Conc(μM):ATP Conc(μM) 1:10
Chain of kinases (Homo sapiens, UniProt P11802) (P11802 whole entry): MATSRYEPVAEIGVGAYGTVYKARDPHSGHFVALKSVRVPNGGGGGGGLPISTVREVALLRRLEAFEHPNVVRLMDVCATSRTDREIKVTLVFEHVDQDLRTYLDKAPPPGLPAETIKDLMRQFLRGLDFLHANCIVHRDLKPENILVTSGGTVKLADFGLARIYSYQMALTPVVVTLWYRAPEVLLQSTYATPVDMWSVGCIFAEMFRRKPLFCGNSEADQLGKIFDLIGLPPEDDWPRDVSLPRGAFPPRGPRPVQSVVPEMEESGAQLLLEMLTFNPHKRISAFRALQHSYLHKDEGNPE

kinases [8] = target: kinases (Homo sapiens, UniProt P12931); conditions: SRC Hu Phos FRET-Z-Lyte SP; Test Conc(μM):ATP Conc(μM) 1:50
kinases [9] = target: kinases (Homo sapiens, UniProt P22607); conditions: FGFR3 *Mn* FRET-Z-Lyte SP; Test Conc(μM):ATP Conc(μM) 1:75
kinases [10] = target: kinases (Homo sapiens, UniProt P36507)
Chain of kinases (Homo sapiens, UniProt P36507) (P36507 whole entry): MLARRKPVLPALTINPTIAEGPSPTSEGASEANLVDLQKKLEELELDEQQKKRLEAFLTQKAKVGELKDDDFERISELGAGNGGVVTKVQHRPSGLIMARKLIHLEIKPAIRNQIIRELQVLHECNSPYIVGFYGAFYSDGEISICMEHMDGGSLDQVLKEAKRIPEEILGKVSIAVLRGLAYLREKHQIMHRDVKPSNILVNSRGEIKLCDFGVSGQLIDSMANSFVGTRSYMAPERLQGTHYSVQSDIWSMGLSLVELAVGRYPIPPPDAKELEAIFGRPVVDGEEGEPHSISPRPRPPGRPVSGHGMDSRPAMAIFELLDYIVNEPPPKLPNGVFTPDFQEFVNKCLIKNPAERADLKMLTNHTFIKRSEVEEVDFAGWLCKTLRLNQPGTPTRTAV

kinases [11] = target: kinases (Homo sapiens, UniProt P36888); conditions: FLT3 Hu Phos FRET-Z-Lyte SP; Test Conc(μM):ATP Conc(μM) 1:500
Chain of kinases (Homo sapiens, UniProt P36888) (P36888 27-993): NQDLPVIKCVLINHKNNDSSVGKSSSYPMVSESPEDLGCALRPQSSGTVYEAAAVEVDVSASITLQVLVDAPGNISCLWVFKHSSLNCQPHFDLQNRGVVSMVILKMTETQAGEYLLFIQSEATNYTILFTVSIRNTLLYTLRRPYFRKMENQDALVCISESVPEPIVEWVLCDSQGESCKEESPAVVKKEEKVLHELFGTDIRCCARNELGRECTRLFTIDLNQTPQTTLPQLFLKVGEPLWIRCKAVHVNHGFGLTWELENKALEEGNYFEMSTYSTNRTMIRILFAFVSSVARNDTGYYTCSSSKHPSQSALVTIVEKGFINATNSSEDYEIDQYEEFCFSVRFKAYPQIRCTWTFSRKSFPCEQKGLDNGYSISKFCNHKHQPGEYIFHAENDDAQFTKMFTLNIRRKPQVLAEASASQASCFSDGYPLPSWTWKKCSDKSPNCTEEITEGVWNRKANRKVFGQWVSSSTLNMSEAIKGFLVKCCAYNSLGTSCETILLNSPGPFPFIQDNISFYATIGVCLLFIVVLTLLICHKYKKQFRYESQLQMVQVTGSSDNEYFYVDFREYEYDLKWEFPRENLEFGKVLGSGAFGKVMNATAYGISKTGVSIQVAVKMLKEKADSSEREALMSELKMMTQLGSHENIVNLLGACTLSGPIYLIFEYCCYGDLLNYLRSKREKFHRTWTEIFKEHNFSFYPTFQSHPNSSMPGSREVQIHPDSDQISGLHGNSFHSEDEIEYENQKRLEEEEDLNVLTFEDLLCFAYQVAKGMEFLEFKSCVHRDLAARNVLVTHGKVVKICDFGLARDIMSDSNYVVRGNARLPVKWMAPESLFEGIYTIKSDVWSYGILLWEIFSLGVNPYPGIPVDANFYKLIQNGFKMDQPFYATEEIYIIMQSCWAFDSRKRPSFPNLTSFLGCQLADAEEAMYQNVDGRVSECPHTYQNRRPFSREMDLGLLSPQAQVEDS

kinases [12] = target: kinases (Homo sapiens, UniProt P42685); conditions: FRK (PTK5) FRET-Z-Lyte SP; Test Conc(μM):ATP Conc(μM) 1:50
kinases [13] = target: kinases (Homo sapiens, UniProt P43250); conditions: GRK6 FRET-Z-Lyte SP; Test Conc(μM):ATP Conc(μM) 1:10
kinases [14] = target: kinases (Homo sapiens, UniProt P49761); conditions: CLK3 FRET-Z-Lyte SP; Test Conc(μM):ATP Conc(μM) 1:150
kinases [15] = target: kinases (Homo sapiens, UniProt P51957); conditions: NEK4 FRET-Z-Lyte SP; Test Conc(μM):ATP Conc(μM) 1:50
kinases [16] = target: kinases (Homo sapiens, UniProt P57059); conditions: SIK1 FRET-Lantha SP; Test Conc(μM) 1
Chain of kinases (Homo sapiens, UniProt P57059) (P57059 whole entry): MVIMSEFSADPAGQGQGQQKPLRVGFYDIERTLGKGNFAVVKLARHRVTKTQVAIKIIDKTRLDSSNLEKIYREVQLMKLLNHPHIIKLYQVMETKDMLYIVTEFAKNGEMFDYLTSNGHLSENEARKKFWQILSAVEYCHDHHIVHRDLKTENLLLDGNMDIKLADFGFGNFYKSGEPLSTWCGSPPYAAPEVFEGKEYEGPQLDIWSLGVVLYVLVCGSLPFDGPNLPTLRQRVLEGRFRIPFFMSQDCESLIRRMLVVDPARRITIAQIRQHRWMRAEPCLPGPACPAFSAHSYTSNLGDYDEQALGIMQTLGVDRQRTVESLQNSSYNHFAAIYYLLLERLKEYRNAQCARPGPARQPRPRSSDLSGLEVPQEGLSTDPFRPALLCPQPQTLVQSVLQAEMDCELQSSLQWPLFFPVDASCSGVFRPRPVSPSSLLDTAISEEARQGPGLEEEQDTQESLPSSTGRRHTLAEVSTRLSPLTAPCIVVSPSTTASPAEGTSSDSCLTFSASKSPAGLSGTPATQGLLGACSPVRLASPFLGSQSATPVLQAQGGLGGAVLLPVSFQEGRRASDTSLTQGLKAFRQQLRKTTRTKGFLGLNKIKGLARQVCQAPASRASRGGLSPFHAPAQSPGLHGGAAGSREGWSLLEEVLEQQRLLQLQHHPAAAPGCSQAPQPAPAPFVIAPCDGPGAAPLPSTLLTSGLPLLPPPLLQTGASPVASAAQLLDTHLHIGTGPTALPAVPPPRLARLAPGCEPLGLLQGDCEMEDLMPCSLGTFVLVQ

kinases [17] = target: kinases (Homo sapiens, UniProt Q13043); conditions: STK4 (MST1) FRET-Z-Lyte SP; Test Conc(μM):ATP Conc(μM) 1:50
Chain of kinases (Homo sapiens, UniProt Q13043) (Q13043 whole entry): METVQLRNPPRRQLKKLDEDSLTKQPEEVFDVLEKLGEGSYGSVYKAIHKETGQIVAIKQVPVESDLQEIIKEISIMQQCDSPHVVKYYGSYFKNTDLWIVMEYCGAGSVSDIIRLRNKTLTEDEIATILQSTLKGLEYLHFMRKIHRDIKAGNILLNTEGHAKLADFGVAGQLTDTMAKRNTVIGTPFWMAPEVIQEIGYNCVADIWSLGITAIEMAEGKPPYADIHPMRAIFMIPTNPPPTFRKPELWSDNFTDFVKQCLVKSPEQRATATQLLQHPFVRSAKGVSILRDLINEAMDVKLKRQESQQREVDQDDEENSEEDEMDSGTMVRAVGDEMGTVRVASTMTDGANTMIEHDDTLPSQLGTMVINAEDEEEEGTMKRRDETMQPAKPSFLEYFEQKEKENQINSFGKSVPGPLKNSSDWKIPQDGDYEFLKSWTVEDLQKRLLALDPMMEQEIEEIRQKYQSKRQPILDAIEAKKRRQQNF

kinases [18] = target: kinases (Homo sapiens, UniProt Q13705); conditions: ACVR2B FRET-Lantha SP; Test Conc(μM) 1
Chain of kinases (Homo sapiens, UniProt Q13705) (Q13705 19-512): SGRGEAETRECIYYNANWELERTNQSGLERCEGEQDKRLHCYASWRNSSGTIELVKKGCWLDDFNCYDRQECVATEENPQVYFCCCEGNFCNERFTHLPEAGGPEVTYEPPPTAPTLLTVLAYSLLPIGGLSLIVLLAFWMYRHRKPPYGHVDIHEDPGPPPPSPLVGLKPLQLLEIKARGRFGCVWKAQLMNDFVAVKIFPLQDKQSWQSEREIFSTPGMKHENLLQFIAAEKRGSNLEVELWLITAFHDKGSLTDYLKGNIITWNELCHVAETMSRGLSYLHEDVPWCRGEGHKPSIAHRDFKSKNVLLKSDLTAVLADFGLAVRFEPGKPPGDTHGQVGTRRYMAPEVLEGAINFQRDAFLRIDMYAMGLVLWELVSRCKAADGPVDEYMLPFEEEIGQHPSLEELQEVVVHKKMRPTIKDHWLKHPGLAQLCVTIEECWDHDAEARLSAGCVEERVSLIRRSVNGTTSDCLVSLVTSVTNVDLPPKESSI

kinases [19] = target: kinases (Homo sapiens, UniProt Q16832); conditions: DDR2 Hu Bind FRET-Lantha SP; Test Conc(μM) 1
kinases [20] = target: kinases (Homo sapiens, UniProt Q8IVH8); conditions: MAP4K3 (GLK) FRET-Lantha SP; Test Conc(μM) 1
kinases [21] = target: kinases (Homo sapiens, UniProt Q8WTQ7); conditions: GRK7 FRET-Z-Lyte SP; Test Conc(μM):ATP Conc(μM) 1:10
kinases [22] = target: kinases (Homo sapiens, UniProt Q96BR1); conditions: SGKL (SGK3) FRET-Z-Lyte SP; Test Conc(μM):ATP Conc(μM) 1:10
kinases [23] = target: kinases (Homo sapiens, UniProt Q96GX5); conditions: MASTL FRET-Lantha SP; Test Conc(μM) 1
Chain of kinases (Homo sapiens, UniProt Q96GX5) (Q96GX5 whole entry): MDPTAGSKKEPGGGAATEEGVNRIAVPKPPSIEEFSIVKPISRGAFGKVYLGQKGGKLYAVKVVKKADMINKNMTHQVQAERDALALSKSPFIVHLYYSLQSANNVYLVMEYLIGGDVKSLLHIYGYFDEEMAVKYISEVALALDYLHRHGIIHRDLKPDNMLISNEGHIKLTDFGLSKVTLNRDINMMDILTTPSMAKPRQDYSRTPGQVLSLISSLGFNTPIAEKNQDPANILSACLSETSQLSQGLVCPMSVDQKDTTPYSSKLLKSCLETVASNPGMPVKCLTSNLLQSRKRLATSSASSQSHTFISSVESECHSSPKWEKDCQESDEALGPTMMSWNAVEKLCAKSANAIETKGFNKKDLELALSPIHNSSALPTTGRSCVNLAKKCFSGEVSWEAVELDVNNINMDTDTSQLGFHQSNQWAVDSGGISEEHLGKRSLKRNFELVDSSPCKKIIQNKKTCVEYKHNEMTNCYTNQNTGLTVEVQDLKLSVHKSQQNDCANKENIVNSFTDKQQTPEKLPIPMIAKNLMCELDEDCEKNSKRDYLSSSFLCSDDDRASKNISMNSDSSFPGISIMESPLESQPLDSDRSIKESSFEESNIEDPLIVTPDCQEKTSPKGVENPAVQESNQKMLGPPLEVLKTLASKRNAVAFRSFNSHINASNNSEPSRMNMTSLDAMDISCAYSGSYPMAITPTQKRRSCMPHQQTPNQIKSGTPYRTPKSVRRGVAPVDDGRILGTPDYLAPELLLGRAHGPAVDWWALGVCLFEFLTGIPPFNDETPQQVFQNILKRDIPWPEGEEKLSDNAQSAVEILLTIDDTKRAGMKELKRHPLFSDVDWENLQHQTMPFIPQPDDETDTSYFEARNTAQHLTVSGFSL

kinases [24] = target: kinases (Homo sapiens, UniProt Q96L34); conditions: MARK4 FRET-Z-Lyte SP; Test Conc(μM):ATP Conc(μM) 1:10
kinases [25] = target: kinases (Homo sapiens, UniProt Q9UK32); conditions: RPS6KA6 (RSK4) FRET-Z-Lyte SP; Test Conc(μM):ATP Conc(μM) 1:25
[26] = MAP2K2 (MEK2) FRET-Lantha SP, Test Conc(μM) 1
[27] = MAP2K2 (MEK2)Cascade Z-Lyte SP, Test Conc(μM):ATP Conc(μM) 1:100

## Cc1ccc(NC(=O)c2ccnc(N3CCOCC3)c2)cc1Nc1ccnc(N2CC(C)OC(C)C2)n1 (stereo not drawn) [compound 3]
Kinases [1]
  Mean Inhib (%): 1.0%
Kinases [2]
  Mean Inhib (%): −2.7%
Kinases [3]
  Mean Inhib (%): 3.6%
Kinases [4]
  Mean Inhib (%): 2.7%
Kinases [5]
  Mean Inhib (%): 20.4%
Kinases [6]
  Mean Inhib (%): 2.1%
Kinases [7]; CDK4 Cyclin D1 *Mn* Adapta SP
  Mean Inhib (%): 7.8%
Kinases [7]; CDK4 Cyclin D3 *Mn* Adapta SP
  Mean Inhib (%): 5.0%
Kinases [8]
  Mean Inhib (%): 14.3%
Kinases [9]
  Mean Inhib (%): −2.6%
Kinases [10]; [26]
  Mean Inhib (%): 1.7%
Kinases [10]; [27]
  Mean Inhib (%): −1.0%
Kinases [11]
  Mean Inhib (%): −9.3%
Kinases [12]
  Mean Inhib (%): 5.7%
Kinases [13]
  Mean Inhib (%): 0.8%
Kinases [14]
  Mean Inhib (%): 2.0%
Kinases [15]
  Mean Inhib (%): 14.2%
Kinases [16]
  Mean Inhib (%): −0.5%
Kinases [17]
  Mean Inhib (%): −3.1%
Kinases [18]
  Mean Inhib (%): −2.1%
Kinases [19]
  Mean Inhib (%): 65.5%
Kinases [20]
  Mean Inhib (%): 7.7%
Kinases [21]
  Mean Inhib (%): 4.6%
Kinases [22]
  Mean Inhib (%): 13.3%
Kinases [23]
  Mean Inhib (%): 2.3%
Kinases [24]
  Mean Inhib (%): 0.2%
Kinases [25]
  Mean Inhib (%): −9.0%

## Cc1cc(Oc2ccnc(Nc3ccc(S(N)(=O)=O)cc3)c2)c(-c2ccccn2)nc1C [compound 65]
Kinases [1]
  Mean Inhib (%): 23.8%
Kinases [2]
  Mean Inhib (%): 7.2%
Kinases [3]
  Mean Inhib (%): 8.1%
Kinases [4]
  Mean Inhib (%): 10.1%
Kinases [5]
  Mean Inhib (%): −13.8%
Kinases [6]
  Mean Inhib (%): 1.5%
Kinases [7]; CDK4 Cyclin D1, Mn
  CDK4 Cyclin D1 *Mn* Adapta SP Mean Mean Inhib (%): 2.5%
Kinases [7]; CDK4 Cyclin D3, Mn
  CDK4 Cyclin D3 *Mn* Adapta SP Mean Mean Inhib (%): −3.9%
Kinases [8]
  Mean Inhib (%): 54.4%
Kinases [9]
  Mean Inhib (%): 7.7%
Kinases [10]; [26]
  Mean Inhib (%): −0.2%
Kinases [10]; [27]
  Mean Inhib (%): 10.4%
Kinases [11]
  Mean Inhib (%): 8.9%
Kinases [12]
  Mean Inhib (%): 60.1%
Kinases [13]
  Mean Inhib (%): 2.1%
Kinases [14]
  Mean Inhib (%): 5.1%
Kinases [15]
  Mean Inhib (%): 3.6%
Kinases [16]
  Mean Inhib (%): 1.8%
Kinases [17]
  Mean Inhib (%): 8.7%
Kinases [18]
  Mean Inhib (%): 95.6%
Kinases [19]
  Mean Inhib (%): 1.6%
Kinases [20]
  Mean Inhib (%): 14.0%
Kinases [21]
  Mean Inhib (%): 8.3%
Kinases [22]
  Mean Inhib (%): 4.7%
Kinases [23]
  Mean Inhib (%): 13.5%
Kinases [24]
  Mean Inhib (%): 1.4%
Kinases [25]
  Mean Inhib (%): −0.7%
